Patent US20050182036A1, “Medicinal composition containing an HMG-CoA reductase inhibitor” (SANKYO COMPANY, LIMITED, priority 2002, published 2005)

Tests used:
Assay type in all cases: in vivo
[1] = tested on: blood concentration of total nitric oxides (NOx); experiment: Blood total nitric oxides (NOx) level in Beagle dogs after 11-day oral administration, NO3- + NO2- by HPLC; details: male Beagle dogs, oral once daily, relative to pre-treatment average = 100, mean of 5 dogs
Description: Simvastatin and atorvastatin synthesized at Chemtech Labo., Inc. were used. Gamma-oryzanol was purchased from Riken Vitamin Co., Ltd. and used. Benfotiamine manufactured at Sankyo Co., Ltd. was used.
Male Beagle dogs of 5 months of age were purchased from Covance Research Products Inc. as the test animals and were used after accommodation breeding for approximately 5 months.
The required amount of the test substance calculated based on the body weight of the test animals was weighed and filled in gelatin capsules (TORPAC Inc., 1/2 oz). After filling up, the capsules were placed in a box divided up for every animal and stored under freezing until use.
The capsules filled up with the test substance were orally administered to the test animals once daily via an oral gavage between 9:00-12:30. The test animals were fasted for 2-3 hrs prior to each administration. The administration period was 11 days.
Approximately 10 mL of blood was collected from the cephalic vein of each dog on—14 and—7 day (the 1st and the 2nd week prior to administration) as well as 4, 8, and 12 days after administration. The animals were fasted for approximately 18 hrs before collection of the blood.
The collected blood was placed in a test tube and allowed to stand at room temperature for 30 min to 1 hour. Then the blood was centrifuged (approximately 1,600 g, for 10 min) and the resultant serum obtained was used for assays.
Nitric oxide synthesized by nitric oxide synthase (NOS) is rapidly converted to nitrate ion (NO3^−) and nitrite ion (NO2^−). Blood concentration of total nitric oxides (NOx) is represented by the sum of NO3^− and NO2^− assayed by HPLC.
Relative values of blood concentration of total nitric oxides (NOx) in animals treated with each dose of simvastatin or atorvastatin calcium, gamma-oryzanol, and benfotiamine alone as well as their medicinal compositions as described above were calculated against each converted average value calculated from that determined 2 weeks and one week before treatment into 100.

[2] = Blood total cholesterol level in Beagle dogs after 11-day oral administration, enzymatic assay; details: male Beagle dogs, oral once daily, relative to pre-treatment average = 100, mean of 5 dogs, mg/Kg: gamma-oryzanol 100, simvastatin 1
Description: (§1) Simvastatin and atorvastatin synthesized at Chemtech Labo., Inc. were used. Gamma-oryzanol was purchased from Riken Vitamin Co., Ltd. and used. Benfotiamine manufactured at Sankyo Co., Ltd. was used. Male Beagle dogs of 5 months of age were purchased from Covance Research Products Inc. as the test animals and were used after accommodation breeding for approximately 5 months. The required amount of the test substance calculated based on the body weight of the test animals was weighed and filled in gelatin capsules (TORPAC Inc., 1/2 oz). After filling up, the capsules were placed in a box divided up for every animal and stored under freezing until use. The capsules filled up with the test substance were orally administered to the test animals once daily via an oral gavage between 9:00-12:30. The test animals were fasted for 2-3 hrs prior to each administration. The administration period was 11 days. […] The animals were fasted for approximately 18 hrs before collection of the blood. […] In addition, total cholesterol content was assayed by enzymatic assay method while HDL, LDL, and triglyceride were determined by homogeneous method, chemically modified method, and enzymatic techniques, respectively. ALP was assayed by Bessey-Lowry method. Clinical Laboratory System (TBA-120FR, Toshiba Medical Systems Corporation) was used in all of these determinations. […] The values indicate average results calculated from 5 dogs per group.

[3] = Blood LDL level in Beagle dogs after 11-day oral administration; details: male Beagle dogs, oral once daily, relative to pre-treatment average = 100, mean of 5 dogs, mg/Kg: gamma-oryzanol 100, simvastatin 1
Description: as §1

[4] = Atherosclerosis index (LDL/HDL) in Beagle dogs after 11-day oral administration; details: male Beagle dogs, oral once daily, relative to pre-treatment average = 100, mean of 5 dogs, mg/Kg: gamma-oryzanol 100, simvastatin 1
Description: as §1

[5] = 4 Days after treatment, mg/Kg: benfotiamine 50, simvastatin 1, atorvastatin calcium 2
[6] = 8 Days after treatment, mg/Kg: benfotiamine 50, simvastatin 1, atorvastatin calcium 2
[7] = 12 Days after treatment, mg/Kg: benfotiamine 50, simvastatin 1, atorvastatin calcium 2

Row | Structure (SMILES) | Changes in blood NOx levels (%) [1, 5] [%] | Changes in blood NOx levels (%) [1, 6] [%] | Changes in blood NOx levels (%) [1, 7] [%] | Changes in blood total cholesterol levels (%) ([2]; 4 Days after treatment) | Changes in blood total cholesterol levels (%) ([2]; 8 Days after treatment) | Changes in blood total cholesterol levels (%) ([2]; 12 Days after treatment) | Changes in blood NOx levels (%) ([1]; 4 Days after treatment, mg/Kg: gamma-oryzanol 100, simvastatin 1) | Changes in blood NOx levels (%) ([1]; 8 Days after treatment, mg/Kg: gamma-oryzanol 100, simvastatin 1) | Changes in blood NOx levels (%) ([1]; 12 Days after treatment, mg/Kg: gamma-oryzanol 100, simvastatin 1) | Changes in blood LDL levels (%) ([3]; 4 Days after treatment) | Changes in blood LDL levels (%) ([3]; 8 Days after treatment) | Changes in blood LDL levels (%) ([3]; 12 Days after treatment) | Changes in atherosclerosis index (LDL/HDL) (%) ([4]; 4 Days after treatment) | Changes in atherosclerosis index (LDL/HDL) (%) ([4]; 8 Days after treatment) | Changes in atherosclerosis index (LDL/HDL) (%) ([4]; 12 Days after treatment)
1 | CC(C)c1c(C(=O)Nc2ccccc2)c(-c2ccccc2)c(-c2ccc(F)cc2)n1CC[C@H](O)C[C@@H](O)CC(=O)O [Atorvastatin calcium, (3R,5S)-7-[2-(4-fluorophenyl)-5-(1-methylethyl)-3-phenyl-4-phenylaminocarbonyl-1H-pyrrol-1-yl]-3,5-dihydroxyheptanoic acid] | 117.7 | 114.1 | 117.9 |  |  |  |  |  |  |  |  |  |  |  | 
2 | C/C(=C(\CCOP(=O)(O)O)SC(=O)c1ccccc1)N(C=O)Cc1cnc(C)nc1N [Benfotiamine] | 96.4 | 91.6 | 107.1 |  |  |  |  |  |  |  |  |  |  |  | 
3 | CCC(C)(C)C(=O)O[C@H]1C[C@@H](C)C=C2C=C[C@H](C)[C@H](CC[C@@H]3C[C@@H](O)CC(=O)O3)[C@H]21 [Simvastatin, (+)-(1S,3R,7S,8S,8aR)-1,2,3,7,8,8a-hexahydro-3,7-dimethyl-8-[2-[ (2R,4R)-tetrahydro-4-hydroxy-6-oxo-2H-pyran-2-yl]ethyl]-1-naphthyl 2,2-dimethylbutyrate] | 101.6 | 85.5 | 121.9 | 94.8 | 94.1 | 92.4 | 101.6 | 85.5 | 121.9 | 83.9 | 90.4 | 81.3 | 86.6 | 93.8 | 86.3
